# Patent US20230365592A1 (Agios Pharmaceuticals, Inc., priority 2022, published 2023)
# Target: T1, human PAH with the R408W mutation (Homo sapiens, UniProt P00439, R408W)
# T1 construct: expressed in transfected cells
# T1 sequence (P00439 1-452 R408W): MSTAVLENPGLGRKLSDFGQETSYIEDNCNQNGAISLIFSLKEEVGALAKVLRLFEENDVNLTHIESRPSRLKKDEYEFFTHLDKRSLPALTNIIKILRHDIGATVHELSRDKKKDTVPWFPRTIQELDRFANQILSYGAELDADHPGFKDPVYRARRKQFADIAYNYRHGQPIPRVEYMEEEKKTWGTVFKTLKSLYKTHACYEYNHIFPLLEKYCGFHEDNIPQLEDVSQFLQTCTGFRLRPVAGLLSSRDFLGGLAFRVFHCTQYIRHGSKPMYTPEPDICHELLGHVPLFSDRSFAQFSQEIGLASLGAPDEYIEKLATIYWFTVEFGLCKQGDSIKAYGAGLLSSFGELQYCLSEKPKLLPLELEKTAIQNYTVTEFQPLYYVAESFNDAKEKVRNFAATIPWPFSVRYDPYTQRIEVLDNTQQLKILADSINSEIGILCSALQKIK
# Test: Cell Based Phenylalanine Flux Assay;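 further: after compound treatment, cells received sepiapterin plus isotope-labelled Phenylalanine for 4 hours, then labelled Tyrosine in the medium was quantified, 10-point 2-fold dilution series run in duplicate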
# Conditions: A375 cells expressing human R408W PAH; 24 hrs compound incubation; 13C-Tyrosine by LC-MS; average where tested multiple times; read-out: AC50
row,AC50,Structure (SMILES)
1,> 5000 nM,"Cc1cccc2cc([C@H]3c4nc[nH]c4CCN3C(=O)c3nnc(-c4ccn(C(F)F)n4)o3)nn12 [Example 937, (R)-(5-(1-(difluoromethyl)-1H-pyrazol-3-yl)-1,3,4-oxadiazol-2-yl)(4-(7-methylpyrazolo[1,5-a]pyridin-2-yl)-6,7-dihydro-1H-imidazo[4,5-c]pyridin-5(4H)-yl)methanone]"
2,< 500 nM,"Cc1cccc2cc([C@@H]3c4nc[nH]c4CCN3C(=O)c3nnc(C(C)(C)F)o3)nn12 [Example 938, (S)-(5-(2-fluoropropan-2-yl)-1,3,4-oxadiazol-2-yl)(4-(7-methylpyrazolo[1,5-a]pyridin-2-yl)-6,7-dihydro-1H-imidazo[4,5-c]pyridin-5(4H)-yl)methanone]"
3,500 to 1000 nM,"Cc1cccc2cc([C@@H]3c4nc[nH]c4CCN3C(=O)c3nnc(C4CC4)o3)nn12 [Example 940, (S)-(5-cyclopropyl-1,3,4-oxadiazol-2-yl)(4-(7-methylpyrazolo[1,5-a]pyridin-2-yl)-6,7-dihydro-1H-imidazo[4,5-c]pyridin-5(4H)-yl)methanone]"
4,> 5000 nM,"Cc1cccc2cc([C@H]3c4nc[nH]c4CCN3C(=O)c3nnc(C4CC4)o3)nn12 [Example 941, (R)-(5-cyclopropyl-1,3,4-oxadiazol-2-yl)(4-(7-methylpyrazolo[1,5-a]pyridin-2-yl)-6,7-dihydro-1H-imidazo[4,5-c]pyridin-5(4H)-yl)methanone]"
5,< 500 nM,"O=C(c1nnc(C2CC2)o1)N1CCc2[nH]cnc2[C@H]1c1cc2c(C(F)(F)F)cccn2n1 [Example 942, (S)-(5-cyclopropyl-1,3,4-oxadiazol-2-yl)(4-(4-(trifluoromethyl)pyrazolo[1,5-a]pyridin-2-yl)-6,7-dihydro-1H-imidazo[4,5-c]pyridin-5(4H)-yl)methanone]"
6,> 5000 nM,"O=C(c1nnc(C2CC2)o1)N1CCc2[nH]cnc2[C@@H]1c1cc2c(C(F)(F)F)cccn2n1 [Example 943, (R)-(5-cyclopropyl-1,3,4-oxadiazol-2-yl)(4-(4-(trifluoromethyl)pyrazolo[1,5-a]pyridin-2-yl)-6,7-dihydro-1H-imidazo[4,5-c]pyridin-5(4H)-yl)methanone]"
7,500 to 1000 nM,"Cc1nnc(C(=O)N2CCc3[nH]cnc3[C@H]2c2cc3c(C(F)(F)F)cccn3n2)o1 [Example 944, (S)-(5-methyl-1,3,4-oxadiazol-2-yl)(4-(4-(trifluoromethyl)pyrazolo[1,5-a]pyridin-2-yl)-6,7-dihydro-1H-imidazo[4,5-c]pyridin-5(4H)-yl)methanone]"
8,> 5000 nM,"Cc1nnc(C(=O)N2CCc3[nH]cnc3[C@@H]2c2cc3c(C(F)(F)F)cccn3n2)o1 [Example 945, (R)-(5-methyl-1,3,4-oxadiazol-2-yl)(4-(4-(trifluoromethyl)pyrazolo[1,5-a]pyridin-2-yl)-6,7-dihydro-1H-imidazo[4,5-c]pyridin-5(4H)-yl)methanone]"
9,< 500 nM,"O=C(c1nnc(C2CC2)o1)N1CCc2[nH]cnc2[C@H]1c1cc2c(F)cccn2n1 [Example 946, (S)-(5-cyclopropyl-1,3,4-oxadiazol-2-yl)(4-(4-fluoropyrazolo[1,5-a]pyridin-2-yl)-6,7-dihydro-1H-imidazo[4,5-c]pyridin-5(4H)-yl)methanone]"
10,> 5000 nM,"O=C(c1nnc(C2CC2)o1)N1CCc2[nH]cnc2[C@@H]1c1cc2c(F)cccn2n1 [Example 947, (R)-(5-cyclopropyl-1,3,4-oxadiazol-2-yl)(4-(4-fluoropyrazolo[1,5-a]pyridin-2-yl)-6,7-dihydro-1H-imidazo[4,5-c]pyridin-5(4H)-yl)methanone]"
11,< 500 nM,"CC(C)(C)c1nnc(C(=O)N2CCc3[nH]cnc3[C@H]2c2cc3c(C(F)(F)F)cccn3n2)o1 [Example 948, (S)-(5-(tert-butyl)-1,3,4-oxadiazol-2-yl)(4-(4-(trifluoromethyl)pyrazolo[1,5-a]pyridin-2-yl)-6,7-dihydro-1H-imidazo[4,5-c]pyridin-5(4H)-yl)methanone]"
12,1000 to 5000 nM,"CC(C)(C)c1nnc(C(=O)N2CCc3[nH]cnc3[C@@H]2c2cc3c(C(F)(F)F)cccn3n2)o1 [Example 949, (R)-(5-(tert-butyl)-1,3,4-oxadiazol-2-yl)(4-(4-(trifluoromethyl)pyrazolo[1,5-a]pyridin-2-yl)-6,7-dihydro-1H-imidazo[4,5-c]pyridin-5(4H)-yl)methanone]"
13,< 500 nM,"CC(C)(F)c1nnc(C(=O)N2CCc3[nH]cnc3[C@H]2c2cc3c(C(F)(F)F)cccn3n2)o1 [Example 950, (S)-(5-(2-fluoropropan-2-yl)-1,3,4-oxadiazol-2-yl)(4-(4-(trifluoromethyl)pyrazolo[1,5-a]pyridin-2-yl)-6,7-dihydro-1H-imidazo[4,5-c]pyridin-5(4H)-yl)methanone]"
14,1000 to 5000 nM,"CC(C)(F)c1nnc(C(=O)N2CCc3[nH]cnc3[C@@H]2c2cc3c(C(F)(F)F)cccn3n2)o1 [Example 951, (R)-(5-(2-fluoropropan-2-yl)-1,3,4-oxadiazol-2-yl)(4-(4-(trifluoromethyl)pyrazolo[1,5-a]pyridin-2-yl)-6,7-dihydro-1H-imidazo[4,5-c]pyridin-5(4H)-yl)methanone]"
15,500 to 1000 nM,"Cn1cc(-c2nnc(C(=O)N3CCc4[nH]cnc4[C@H]3c3cc4cccc(C(F)(F)F)n4n3)o2)cn1 [Example 952, (S)-(5-(1-methyl-1H-pyrazol-4-yl)-1,3,4-oxadiazol-2-yl)(4-(7-(trifluoromethyl)pyrazolo[1,5-a]pyridin-2-yl)-6,7-dihydro-1H-imidazo[4,5-c]pyridin-5(4H)-yl)methanone]"
16,1000 to 5000 nM,"Cn1cc(-c2nnc(C(=O)N3CCc4[nH]cnc4[C@@H]3c3cc4cccc(C(F)(F)F)n4n3)o2)cn1 [Example 953, (R)-(5-(1-methyl-1H-pyrazol-4-yl)-1,3,4-oxadiazol-2-yl)(4-(7-(trifluoromethyl)pyrazolo[1,5-a]pyridin-2-yl)-6,7-dihydro-1H-imidazo[4,5-c]pyridin-5(4H)-yl)methanone]"
17,< 500 nM,"Cc1c(-c2nnc(C(=O)N3CCc4[nH]cnc4[C@H]3c3cc4c(F)cccn4n3)o2)cnn1C [Example 954, (S)-(5-(1,5-dimethyl-1H-pyrazol-4-yl)-1,3,4-oxadiazol-2-yl)(4-(4-fluoropyrazolo[1,5-a]pyridin-2-yl)-6,7-dihydro-1H-imidazo[4,5-c]pyridin-5(4H)-yl)methanone]"
18,> 5000 nM,"Cc1c(-c2nnc(C(=O)N3CCc4[nH]cnc4[C@@H]3c3cc4c(F)cccn4n3)o2)cnn1C [Example 955, (R)-(5-(1,5-dimethyl-1H-pyrazol-4-yl)-1,3,4-oxadiazol-2-yl)(4-(4-fluoropyrazolo[1,5-a]pyridin-2-yl)-6,7-dihydro-1H-imidazo[4,5-c]pyridin-5(4H)-yl)methanone]"
19,> 5000 nM,"Cc1cccn2nc([C@H]3c4nc[nH]c4CCN3C(=O)c3nnc(-c4cnccn4)o3)cc12 [Example 956, (R)-(4-(4-methylpyrazolo[1,5-a]pyridin-2-yl)-6,7-dihydro-1H-imidazo[4,5-c]pyridin-5(4H)-yl)(5-(pyrazin-2-yl)-1,3,4-oxadiazol-2-yl)methanone]"
20,< 500 nM,"Cc1cccn2nc([C@@H]3c4nc[nH]c4CCN3C(=O)c3nnc(-c4cnccn4)o3)cc12 [Example 957, (S)-(4-(4-methylpyrazolo[1,5-a]pyridin-2-yl)-6,7-dihydro-1H-imidazo[4,5-c]pyridin-5(4H)-yl)(5-(pyrazin-2-yl)-1,3,4-oxadiazol-2-yl)methanone]"
21,1000 to 5000 nM,"O=C(c1ocnc1C(F)F)N1CCc2[nH]cnc2[C@@H]1c1cc2cccc(Cl)n2n1 [Example 959, (R)-(4-(7-chloropyrazolo[1,5-a]pyridin-2-yl)-6,7-dihydro-1H-imidazo[4,5-c]pyridin-5(4H)-yl)(4-(difluoromethyl)oxazol-5-yl)methanone]"
22,500 to 1000 nM,"CC(C)(O)c1nc(C(F)F)c(C(=O)N2CCc3[nH]cnc3[C@H]2c2cc3cccc(Cl)n3n2)o1 [Example 960, (S)-(4-(7-chloropyrazolo[1,5-a]pyridin-2-yl)-6,7-dihydro-1H-imidazo[4,5-c]pyridin-5(4H)-yl)(4-(difluoromethyl)-2-(2-hydroxypropan-2-yl)oxazol-5-yl)methanone]"
23,1000 to 5000 nM,"CC(C)(O)c1nc(C(F)F)c(C(=O)N2CCc3[nH]cnc3[C@@H]2c2cc3cccc(Cl)n3n2)o1 [Example 961, (R)-(4-(7-chloropyrazolo[1,5-a]pyridin-2-yl)-6,7-dihydro-1H-imidazo[4,5-c]pyridin-5(4H)-yl)(4-(difluoromethyl)-2-(2-hydroxypropan-2-yl)oxazol-5-yl)methanone]"
24,> 5000 nM,"O=C(c1nnc(-c2cnccn2)o1)N1CCc2[nH]cnc2[C@@H]1c1cc2c(F)cccn2n1 [Example 963, (R)-(4-(4-fluoropyrazolo[1,5-a]pyridin-2-yl)-6,7-dihydro-1H-imidazo[4,5-c]pyridin-5(4H)-yl)(5-(pyrazin-2-yl)-1,3,4-oxadiazol-2-yl)methanone]"
25,< 500 nM,"O=C(c1nnc(-c2ccn(C(F)F)n2)o1)N1CCc2[nH]cnc2[C@H]1c1cc2cccc(Cl)n2n1 [Example 964, (S)-(4-(7-chloropyrazolo[1,5-a]pyridin-2-yl)-6,7-dihydro-1H-imidazo[4,5-c]pyridin-5(4H)-yl)(5-(1-(difluoromethyl)-1H-pyrazol-3-yl)-1,3,4-oxadiazol-2-yl)methanone]"
26,> 5000 nM,"O=C(c1nnc(-c2ccn(C(F)F)n2)o1)N1CCc2[nH]cnc2[C@@H]1c1cc2cccc(Cl)n2n1 [Example 965, (R)-(4-(7-chloropyrazolo[1,5-a]pyridin-2-yl)-6,7-dihydro-1H-imidazo[4,5-c]pyridin-5(4H)-yl)(5-(1-(difluoromethyl)-1H-pyrazol-3-yl)-1,3,4-oxadiazol-2-yl)methanone]"
